The values that follow come from patent US8071642B2, “Dimethyl amino ethyl ether psoralens and methods for their production and use” (Rutgers, The State University of New Jersey, priority 2007, dated 2011).

The test system of this assay is PAM 212 keratinocytes. Kind of assay: Photo-induced growth inhibition assay against PAM 212 keratinocytes (UVA activated). The format is cell-based. The settings on record: 1.28 J/cm^2 UVA (320-400 nm), cells counted after 4-5 days of growth, read-out: IC50 (concentration at which photoactivated test compound inhibited growth by 50%). As for the experimental part: The photobiological activity was assayed using a keratinocyte cell line grown in a monolayer culture. In this assay, PAM 212 keratinocytes were grown in Dulbecco's Modified Eagle's medium supplemented with 10% newborn calf serum in a 5% carbon dioxide incubator. Cells were inoculated into 6-well Falcon plastic culture dishes at 25,000 cells per well. After 24 hours, the medium was charged to fresh growth medium supplemented with increasing concentrations of the test compounds or the control medium. Controls and test concentrations were analyzed in triplicate.
These plates were incubated in a 37° C. carbon dioxide incubator. After 30 minutes, culture plates were exposed to UVA light (UVA, 320-400 nm) emitted from a bank of four BLB fluorescence light tubes (F40 BL, Sylvania) placed approximately 10 cm above the cell culture plates. The incident light on the culture plates was 2.4 mW/cm^2 as measured with an International Light UV radiometer, Model IL442A). […]
After completion of the irradiation phase, the cell culture medium was drained, the cells were refed with fresh growth medium and then re-incubated with carbon dioxide incubator to allow for cell growth. […] The cells were detached from the plates with trypsin and counted in a Coulter Counter. For control cells or for cells treated with test compounds, cell growth was determined as a percentage of control.

Structures can show the parent of a compound that is named as a salt.

“8-[2-(N,N-dimethylamino)ethoxyl-psoralen hydrochloride salt [Formula I (R=H, R1=H, A-B=—CH═CH—)]”: the IC50 was 0.012 µM.

For the compound `CN(C)CCOc1c2c(cc3ccc(=O)oc13)CCO2` [Formula I R=H, R1=H, A-B=—CH2—CH2—, 8-[2-(N,N-dimethylamino)ethoxy]-4′,5′-dihydropsoralen hydrochloride salt], the IC50 was determined as 13 µM.
